Test results reported in the supplement of paper PMC10307832.

What was measured:
Assay in all cases: relative viability (nuclei count vs DMSO), 5 days (fraction); higher = more cells survive
Mirin + Tozasertib = compound: N=C1NC(=O)/C(=C/c2ccc(O)cc2)S1 [Mirin] + Cc1cc(Nc2cc(N3CCN(C)CC3)nc(Sc3ccc(NC(=O)C4CC4)cc3)n2)n[nH]1 [Tozasertib] (partner 0.1 µM)
Summary of the method: (§1)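 One day after seeding in 1536-well plates, lung cancer cell lines were dosed by pin tool. Dosing was either single-drug or a fixed anchor-drug dose plus five library-drug doses (not always all listed) in √10 steps. After 5 days, nuclei were stained in one fix-and-stain step and counted on 4× images, and relative viability is the nuclei count of treated wells over that of vehicle wells, given as the median of duplicate plates.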

[1] = compound: CCC1=CN=CN=C1N2CCN(CC2)CC3=NC4=C(N3)C=C(C=C4)C(F)(F)F + Nc1nc2[nH]cc(CCc3ccc(C(=O)N[C@@H](CCC(=O)O)C(=O)O)cc3)c2c(=O)[nH]1 [Pemetrexed] (partner 0.2 µM)
Summary of the method: as §1

Mirin + Olaparib = compound: N=C1NC(=O)/C(=C/c2ccc(O)cc2)S1 [Mirin] + O=C(c1cc(Cc2n[nH]c(=O)c3ccccc23)ccc1F)N1CCN(C(=O)C2CC2)CC1 [Olaparib] (partner 8 µM)
Summary of the method: as §1

[2] = compound: CCC1=CN=CN=C1N2CCN(CC2)CC3=NC4=C(N3)C=C(C=C4)C(F)(F)F + O=C(CCCCCCC(=O)Nc1ccccc1)NO [Vorinostat] (partner 1 µM)
Summary of the method: as §1

Row | Cell Line | relative viability (Mirin + Tozasertib; first compound 0.25 µM) | relative viability (Mirin + Tozasertib; first compound 0.7906 µM) | relative viability (Mirin + Tozasertib; first compound 2.5 µM) | relative viability (Mirin + Tozasertib; first compound 7.906 µM) | relative viability (Mirin + Tozasertib; first compound 25 µM) | relative viability ([1]; first compound 0.04 µM) | relative viability ([1]; first compound 0.1265 µM) | relative viability ([1]; first compound 0.4 µM) | relative viability ([1]; first compound 1.265 µM) | relative viability ([1]; first compound 4 µM) | relative viability (Mirin + Olaparib; first compound 0.25 µM) | relative viability (Mirin + Olaparib; first compound 0.7906 µM) | relative viability (Mirin + Olaparib; first compound 2.5 µM) | relative viability (Mirin + Olaparib; first compound 7.906 µM) | relative viability (Mirin + Olaparib; first compound 25 µM) | relative viability ([2]; first compound 0.04 µM) | relative viability ([2]; first compound 0.1265 µM) | relative viability ([2]; first compound 0.4 µM) | relative viability ([2]; first compound 1.265 µM) | relative viability ([2]; first compound 4 µM)
1 | NCI-H322M | 0.509 | 0.524 | 0.569 | 0.447 | 0.401 | 0.62 | 0.606 | 0.603 | 0.539 | 0.629 | 0.81 | 0.816 | 0.726 | 0.712 | 0.583 | 1.12 | 0.855 | 0.859 | 0.621 | 0.912
2 | NCI-H2405 | 0.71 | 0.778 | 0.775 | 0.67 | 0.61 | 1.02 | 1.05 | 0.992 | – | 1.15 | 0.916 | – | 0.898 | 0.97 | 0.838 | 1.03 | 0.961 | 0.925 | – | 1.12
3 | HCC-44 | 1.06 | 0.433 | 0.93 | 0.824 | 0.404 | 0.635 | 0.63 | 0.684 | 0.685 | 0.644 | 0.99 | 1.11 | 0.97 | 0.964 | 1.1 | 1.01 | 1.06 | 1.09 | 1.17 | 1.02
4 | HCC-78 | 0.409 | 0.492 | 0.386 | 0.337 | 0.33 | 0.913 | 0.829 | 0.905 | 0.898 | 0.952 | 0.786 | 0.628 | 0.718 | 0.852 | 0.732 | 0.528 | 0.405 | 0.47 | 0.4 | 0.409
5 | COR-L23 | 0.162 | 0.213 | 0.17 | 0.15 | 0.132 | 0.208 | 0.199 | 0.189 | 0.198 | 0.206 | 0.395 | 0.319 | 0.313 | 0.365 | 0.319 | 0.464 | 0.523 | 0.404 | 0.44 | 0.462
6 | NCI-H1993 | 0.611 | – | 0.605 | 0.52 | 0.576 | 0.597 | 0.644 | 0.575 | 0.513 | 0.674 | 1.07 | 1.07 | 1.12 | 0.932 | 0.962 | 0.846 | 0.983 | 0.648 | 0.816 | 0.964
7 | NCI-H3122 | 0.368 | 0.337 | 0.355 | 0.382 | 0.305 | 0.21 | 0.184 | 0.202 | 0.203 | 0.215 | 0.691 | 0.667 | 0.566 | 0.623 | 0.664 | 1.04 | 0.863 | 1.01 | 1.03 | 0.875
8 | NCI-H2228 | 0.267 | 0.197 | 0.235 | 0.203 | 0.176 | – | 0.363 | 0.335 | 0.303 | 0.294 | 0.552 | 0.676 | 0.819 | 0.666 | 0.723 | – | 0.63 | 0.587 | 0.693 | 0.496
9 | NCI-H1944 | 0.245 | 0.231 | 0.253 | 0.192 | 0.174 | 0.702 | 0.561 | 0.61 | 0.541 | 0.699 | 0.377 | 0.421 | 0.391 | 0.328 | 0.296 | 0.664 | 0.441 | 0.663 | 0.384 | 0.524
10 | NCI-H2342 | 0.474 | 0.636 | 0.625 | 0.49 | 0.459 | 0.785 | 0.751 | 0.652 | 0.518 | 0.625 | 0.441 | 0.442 | 0.427 | – | 0.368 | 0.629 | 0.736 | 0.744 | 0.531 | 0.565
11 | NCI-H358 | 0.11 | 0.0924 | 0.114 | 0.0872 | 0.106 | 0.159 | 0.193 | 0.176 | 0.151 | 0.167 | 0.6 | 0.86 | 0.584 | 0.487 | 0.601 | 0.695 | 0.622 | 0.661 | 0.586 | 0.686
12 | NCI-H1734 | 0.262 | 0.285 | 0.272 | 0.228 | 0.223 | 0.449 | 0.39 | 0.408 | 0.422 | 0.435 | 0.538 | 0.582 | 0.662 | 0.556 | 0.461 | 0.734 | 0.803 | 0.783 | 0.7 | 0.814
13 | A-427 | 0.196 | – | 0.202 | 0.143 | 0.158 | 0.761 | 0.934 | 0.873 | 0.835 | 0.898 | 0.769 | 0.682 | 0.631 | 0.766 | 0.766 | 0.776 | 0.836 | 0.794 | 0.721 | 0.809
14 | SK-LU-1 | 0.332 | 0.325 | 0.346 | 0.213 | 0.209 | 0.892 | 0.992 | 0.958 | 0.985 | 0.998 | 0.5 | 0.532 | 0.449 | 0.357 | 0.425 | 0.675 | 0.74 | 0.76 | 0.777 | 0.68
15 | ABC-1 | 0.167 | 0.235 | 0.197 | 0.223 | 0.193 | – | – | – | – | – | 0.887 | 0.618 | 0.78 | 0.593 | 0.41 | – | – | 0.989 | 0.84 | 1.03
16 | NCI-H1792 | – | – | – | – | – | 0.773 | 0.736 | 0.82 | – | 0.665 | 0.533 | 0.392 | 0.484 | 0.383 | 0.495 | – | – | – | – | –
17 | NCI-H1563 | – | – | – | – | – | 0.6 | 0.619 | 0.834 | 0.598 | 0.887 | – | – | – | – | – | – | – | – | – | –
18 | EBC-1 | – | – | – | – | – | – | – | – | – | – | 0.707 | 0.783 | 0.693 | 0.561 | 0.471 | – | – | – | – | –
19 | IA-LM | – | – | – | – | – | – | – | – | – | – | 0.786 | 0.947 | 0.765 | – | 0.902 | – | 0.979 | 0.937 | 0.932 | 0.962
20 | NCI-H1703 | – | – | – | – | – | – | – | – | – | – | 0.414 | 0.384 | 0.412 | – | 0.635 | – | – | – | – | –
21 | NCI-H727 | 0.705 | 0.629 | 0.661 | 0.543 | 0.553 | – | – | – | – | – | 0.728 | 0.6 | 0.768 | 0.602 | 0.561 | 1.22 | 1.08 | 1.09 | 1.03 | 1.35
